The text below walks through data of patent US12392776B2, “Methods and kits for detecting exosomal protein” (City University of Hong Kong, priority 2020, dated 2025).

Common to all, as to assay type: cell-based, human
The test system of test [1] is HIF-1α.
Test [2] relates to GMs. The test is described as follows: Intracellular Ca2+ level (Fluo-4 AM Ca2+ assay / Fura Red imaging). The note with it: FIG. 23B. On the procedure: To further investigate whether the change of intracellular Ca^2+ concentrations could be associated with hypoxia-driven enhanced exosome release, […], AM Ca^2+ imaging and Fluo-4 AM Ca^2+ assay were conducted with normoxic- and hypoxic-U251 cells.
To recapitulate the hypoxia-induced acidic TME, sodium-L-lactates (20 mM) were applied to the culture medium of GMs.

Test [3] has as its system U251 cells. The test is described as follows: NTA exosome release assay. As for the experimental part: To investigate the correlation between the malignant transition of hypoxic GMs and their production and release of exosomes, the secretion assay of exosomes was conducted via using nanoparticle tracking analysis (NTA). U251 cells were tested under normoxic or hypoxic condition.
Briefly, a represents Exo-FBS medium, b represents Sodium-L-lactate (20 mM), c represents BAPTA-AM, d represents BAPTA-AM with the pretreatment of Sodium-L-lactate (20 mM). All chemicals were dissolved in the Exo-FBS medium containing 1% DMSO. All data were shown as the mean±SEM. Significance level: **P<0.01, *P<0.05, hypoxia vs. normoxia, No-treatment vs. BAPTA-AM, MCT1 KD virus vs. Empty backbone virus (control 1), CD147 antisense vs. antisense control (control 2).

In the case of `[Cl-].[Cl-].[Co+2]` [CoCl2], the “HIF-1α expression and nuclear localization” value in test [1] is “increased HIF-1α expression and enhanced nuclear localization of HIF-1α”.
For `CC(=O)OCOC(=O)CN(CC(=O)OCOC(C)=O)c1ccccc1OCCOc1ccccc1N(CC(=O)OCOC(C)=O)CC(=O)OCOC(C)=O` [BAPTA-AM], the “intracellular Ca2+ level” value in test [2] (GMs after sodium-L-lactate, BAPTA-AM 20 μM, 100 μl added to 2.1 ml medium) is on record as “distinctive decline in intracellular Ca^2+ level”. For the same molecule, the exosome release entry is given as “marked decline in exosome release” in test [3] (GMs with induction of MCT1 OE and CD147 OE, BAPTA-AM 20 μM, 100 μl added to 2.1 ml medium, FIG. 23A); “blocked” in test [3] (GMs, lactate-stimulated release, BAPTA-AM with pretreatment of sodium-L-lactate 20 mM, 10 min, FIG. 23C); “blocked the enhanced release of exosomes” in test [3] (hypoxia-enhanced release from U251 cells, intracellular Ca2+ chelated with BAPTA-AM (20 μM)).
As for `C[C@H](O)C(=O)[O-].[Na+]` [sodium-L-lactate], the “intracellular Ca2+ level” value in test [2] (GMs, sodium-L-lactate 20 mM, 100 μl added to 2 ml medium) is listed as “enhanced intracellular Ca^2+ level”. Besides, the exosome release result in test [3] (GMs exposed to sodium-L-lactate 20 mM for 10 min, FIG. 23C) was “promote exosome release”.
